Data: PMC9227781, “Inhibitors of O-Acetylserine Sulfhydrylase with a Cyclopropane-Carboxylic Acid Scaffold Are Effective Colistin Adjuvants in Gram Negative Bacteria” (Pharmaceuticals, 2022)

What was measured:
[1] = system: K. pneumoniae ATCC13883; assay: Checkerboard assay with colistin, K. pneumoniae; assay type: cell-based, Klebsiella pneumoniae; settings: for reduction of the MIC of colistin, K. pneumoniae: association of colistin with compound; for MIC Colistin K. pneumoniae: colistin in combination with compound at 8 μg/mL
Experimental: (§1) Antimicrobial activity of associations between the different compounds and colistin (Sigma-Aldrich, St. Louis, MO, USA, lot n. 049M-4836 V) was tested with checkerboard assay with minor modifications, as mentioned in the previous work. For each assay, three experiments with three replicates each were assessed. For each compound tested concentration, 96-wells microtiter U-plates were prepared with twofold serial dilutions of colistin in MHB starting from the MIC value (µg/mL) for ten consecutive dilutions in 50 µL of broth. In each well of the same replicate, 1 µL of each compound in DMSO was added at a fixed concentration, 100 times higher than the final desired concentration (3.2; 1.6; 0.8 mg/mL). Subsequently, 49 µL of the bacterial suspension at a concentration of 10^6 CFU/mL, adjusted spectrophotometrically as reported above, was added to each well, reaching the final bacterial concentration of 5 × 10^5 CFU/mL. Growth and sterility controls were performed for each experiment and for each replicate. Finally, the plates were incubated at 37 °C in aerobic atmosphere for 24 h. After incubation, plates were read by unaided eye with a microtiter reading mirror and then the OD of each well of the plates was measured spectrophotometrically at 620 nm. MIC values were calculated as the arithmetic mean ± SD of the unaided eye reading and the inhibition of growth for each tested dilution was calculated from the OD values (mean ± SD).
(§2) To evaluate the antimicrobial effect of the two molecules in association, the FIC index was calculated as follows. The MICs of each of the two molecules tested individually and in combination with each other were evaluated and the results have been included in the following formula as reported by Meletiadis et al.: FIC=MICA in combination/MICA+MICB in combination/MICB where MICA was the MIC of the compound UPAR415 and MICA in combination was the MIC of UPAR415 in combination with colistin. MICB was the MIC of colistin and MICB in combination was the MIC of colistin in combination with UPAR415. From the results of the FIC index formula, the antimicrobial activity in combination of the two molecules can be considered: synergistic, additive, indifferent of antagonistic. If the FIC index is ≤ 0.5, the association is synergic; additive if FIC is between 0.5 and 1; indifferent if FIC is between 1 and 4; and antagonistic if FIC is ≥4 [50].
(§3) Statistical analysis of checkerboard results in comparison with MIC values of colistin alone was performed using the Analysis of Variance (ANOVA) test.

[2] = system: S. Typhimurium ATCC14028; assay: MIC by broth microdilution, S. Typhimurium; assay type: cell-based, Salmonella enterica serovar Typhimurium; settings: Salmonella enterica; compound alone, MHB, 24 h at 37 °C; read-out: MIC (μg/mL) S. Typhimurium ATCC14028
Summary of the method: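 CLSI-based broth microdilution in MHB, inoculum 5 × 10^5 CFU/mL from log-phase cultures, compounds tested at 256–0.5 µg/mL final, 24 h at 37 °C static aerobic. MIC read by unaided eye with mirror plus OD620 for growth inhibition; mean ± SD of three experiments in triplicate.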

[3] = system: E. coli ATCC 25922; assay: Checkerboard assay with colistin, E. coli; assay type: cell-based, Escherichia coli; settings: for MIC Colistin E. coli: colistin in combination with compound at 8 μg/mL; for FIC Index E. coli / FIC Index interpretation E. coli: compound at 8 μg/mL with colistin; for fold reduction of MIC of colistin, E. coli: compound at 8 µg/mL, versus colistin alone
Experimental: as §1, §2, §3

[4] = system: S. Typhimurium ATCC14028; assay: Checkerboard assay with colistin, S. Typhimurium; assay type: cell-based, Salmonella enterica serovar Typhimurium; settings: for MIC: Salmonella enterica, colistin in combination with compound at 8 μg/mL; for fold reduction with respect to the MIC of colistin alone, S. Typhimurium: compound at 8 µg/mL
Experimental: as §1, §2, §3

[5] = target: T1, StOASS-A (Salmonella typhimurium, UniProt P0A1E3); assay: Fluorescence binding assay on purified recombinant StOASS-A; set-up: species or system S. Typhimurium; settings: 20 °C, 100 mM HEPES, 5% DMSO, pH 7.0, racemic mixture, esters tested up to 100 μM
T1 construct: His-tag (with TEV site) (cleaved yes); made in house; host or cells: E. coli Rosetta (DE3)
Experimental: The affinity of the compounds for StOASS-A and StOASS-B was determined on the purified recombinant proteins by an in vitro fluorescence binding assay. Measurements were carried out at 20 °C in a 3 mm pathlength quartz microcuvette in 100 mM HEPES, 5% DMSO (Applichem, Darmstadt, Germany), pH 7.0, using a Fluoromax-4 (Horiba Jobin-Yvon, Kyoto, Japan) spectrofluorometer. Emission spectra of solutions containing 0.2–1.0 μM StOASS, upon excitation of the pyridoxal 5′-phosphate cofactor at 412 nm, in the presence of increasing concentrations of compounds were collected; fluorescence intensities at 500 nm were plotted to compound concentration and data were fitted to a binding isotherm: I=I0+ΔI·compound/KD+compound where I is the fluorescence emission intensity at 500 nm in the presence of a given concentration of compound, I0 is the initial fluorescence emission in the absence of ligands, ΔI is the amplitude of the fluorescence emission change and KD is the dissociation constant. When the KD was lower than the protein concentration, data were fitted to the quadratic equation: I=I0+ΔI·OASS+compound+KD−OASS+compound+KD^2−4·OASS·compound/2
Data were collected in duplicate.
Esters were tested up to a concentration of 100 μM and no binding was observed.

[6] = compound at 8 μg/mL with colistin

T1 sequence (P0A1E3 whole entry): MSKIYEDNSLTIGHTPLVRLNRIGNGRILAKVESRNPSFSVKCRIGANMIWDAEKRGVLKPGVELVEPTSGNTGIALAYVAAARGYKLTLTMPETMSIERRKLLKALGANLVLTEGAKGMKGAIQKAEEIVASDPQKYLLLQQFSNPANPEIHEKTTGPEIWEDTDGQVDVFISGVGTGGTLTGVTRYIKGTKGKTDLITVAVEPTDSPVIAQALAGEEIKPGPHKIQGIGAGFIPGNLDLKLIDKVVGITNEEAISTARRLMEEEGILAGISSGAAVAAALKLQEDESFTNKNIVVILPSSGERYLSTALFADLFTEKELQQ

| Compound | reduction of the MIC of colistin, K. pneumoniae [1] | MIC Colistin K. pneumoniae [1] [µg/mL] | FIC Index K. pneumoniae [1, 6] | FIC Index interpretation K. pneumoniae [1, 6] | MIC [2] [µg/mL] | MIC Colistin E. coli [3] [µg/mL] | FIC Index E. coli [3] | FIC Index interpretation E. coli [3] | fold reduction of MIC of colistin, E. coli [3] [fold] | MIC [4] [µg/mL] | MIC Colistin ([4]; colistin in combination with 12h at 32 μg/mL, S. Typhimurium ATCC14028 (wild type)) [µg/mL] | fold reduction with respect to the MIC of colistin alone, S. Typhimurium [4] [fold] | FIC Index S. Typhimurium [4, 6] | FIC Index interpretation S. Typhimurium [4, 6] | KD (μM) OASS-A [5] | effect on MIC of colistin, K. pneumoniae ([1]; compound at 32 and 16 µg/mL) | Kd ([5]; read-out: KD (μM) OASS-A) [µM] |
| --- | --- | --- | --- | --- | --- | --- | --- | --- | --- | --- | --- | --- | --- | --- | --- | --- | --- |
| CCOC(=O)C1(Cc2ccc(C)cc2)CC1c1cccc(N2CC(C)OC(C)C2)c1 (stereo not drawn) [Compound 12h, trans-ethyl 2-(3-(2,6-dimethylmorpholino)phenyl)-1-(4-methylbenzyl)cyclopropanecarboxylate] | has not led to a reduction of the MIC of colistin | 8.00 ± 0.0 | 2.01 | indifference (indifferent if FIC is between 1 and 4) | > 512 | 0.122 ± 0.08 | 0.33 | synergy (If the FIC index is ≤ 0.5, the association is synergic) | 2 | 0.101 ± 0.07 | 0.125 ± 0.08 | 5 | 0.21 | synergy (If the FIC index is ≤ 0.5, the association is synergic) | No binding |  |  |
| Cc1ccc(CC2(C(=O)O)CC2c2cccc(N3CC(C)OC(C)C3)c2)cc1 (stereo not drawn) [Compound 13h, trans-2-(3-(2,6-dimethylmorpholino)phenyl)-1-(4-methylbenzyl)cyclopropanecarboxylic acid] | has not led to a reduction of the MIC of colistin | 3.33 ± 1.0 | 0.85 |  | > 512 | 0.18 ± 0.06 | 0.48 | synergy (If the FIC index is ≤ 0.5, the association is synergic) | 3 | 0.468 ± 0.01 |  | 2 | 0.90 |  | most potent in vitro activity among the derivatives substituted with heteroaliphatic groups | only a slight effect | 0.066 ± 0.005 |
